We go through 15 compounds from patent publication US20230240994A1, “MEDICAMENT-CONTAINING HOLLOW PARTICLE” (Sumitomo Pharma Co., Ltd., priority 2012, published 2023).

Molecules are shown by their SMILES. Where a name gives a salt, the structure may show the parent alone.

This data set in a line: Particle size distribution by laser diffraction particle size analyzer (volume basis). The format is physicochemical. The protocol:
In the present invention, the “average particle size” means cumulative 50% particle size D50 in the volume based measurement of powder particles. Such average particle size is measured by a laser diffraction particle size analyzer (e.g., Particle Viewer manufactured by POWREX CORPORATION, or SALD-3000J manufactured by Shimadzu Corporation, or HELOS&RODOS manufactured by Sympatec GmbH) by volume basis.
The particle size distribution of medicament, polymer, other additive, a mixed powder of the medicament and other additive, and the obtained medicament-containing particle was measured by a laser diffraction particle size analyzer (manufactured by POWREX CORPORATION, Particle Viewer) or laser diffraction particle size analyzer (manufactured by Shimadzu Corporation, SAID-3000J) by volume basis.

Where [1] appears, read: medicament used (raw material), laser diffraction SALD-3000J.
The mark [2] stands for this setting: micronized product of Compound A used in Comparative Example 3-2.
Setting [3] is: starting material as used (medicament, polymer, other additive, mixed powder), volume basis.

Turning to `NS(=O)(=O)Cc1noc2ccccc12` [Compound A (D50: 2.7 μm)], under setting [1], the “particle size distribution D10” value amounted to 0.7 μm, the “particle size distribution D50” value turned out to be 2.7 μm and the “particle size distribution D90” value was determined as 5.6 μm.
For `NS(=O)(=O)Cc1noc2ccccc12` [Compound A (D50: 6.9 μm)] the same measures were 1.0 μm, 6.9 μm and 26.8 μm.
For `NS(=O)(=O)Cc1noc2ccccc12` [Compound A (D50: 9.9 μm)] the same measures were 1.2 μm, 9.9 μm and 42.9 μm.
With `NS(=O)(=O)Cc1noc2ccccc12` [Compound A, 1,2-benzisoxazole-3-methanesulfonamide, reference compound], under setting [1], the “particle size distribution D10” value worked out at 0.7 μm, the “particle size distribution D50” value is 2.7 μm and the “particle size distribution D90” value was found to be 5.6 μm. Further, under setting [2], the “particle size distribution D10” value was 3.2 μm, the “particle size distribution D50” value stood at 13.3 μm and the “particle size distribution D90” value worked out at 40.8 μm. Under setting [3], the “particle size distribution D10” value was found to be 0.7 μm, the “particle size distribution D50” value came out at 2.7 μm and the “particle size distribution D90” value came to 5.6 μm.
Consider `Cl.O=C1[C@@H]2[C@H]3CC[C@H](C3)[C@@H]2C(=O)N1C[C@@H]1CCCC[C@H]1CN1CCN(c2nsc3ccccc23)CC1` [Compound B, (3aR,4S,7R,7aS)-2-{(1R,2R)-2-[4-(1,2-benzisothiazol-3-yl)piperazin-1-ylmethyl]cyclohexylmethyl}hexahydro-4,7-methano-2H-isoindole-1,3-dione hydrochloride, reference compound], for which, under setting [3], the “particle size distribution D10” value turned out to be 0.5 μm, the “particle size distribution D50” value was found to be 1.5 μm and the “particle size distribution D90” value is recorded as 3.3 μm.
In the same order, the values of `Nc1ccc(O)c(C(=O)O)c1` [Compound D, 5-amino-2-hydroxybenzoic acid, reference compound] are 1.3 μm, 4.6 μm and 12.7 μm.
Regarding `C[C@@H](c1ccc(-c2ccccc2)c(F)c1)c1cc(N=C(N)N2CCOCC2)on1` [Compound E, 3-[(1S)-1-(2-fluorobiphenyl-4-yl)ethyl]-5-{[amino(morpholin-4-yl)methylene]amino}isoxazole], under setting [3], the “particle size distribution D10” value turned out to be 1.3 μm, the “particle size distribution D50” value is given as 3.2 μm and the “particle size distribution D90” value was determined as 6.3 μm.
In the same order, the values of `COc1cccc(-c2nccc3[nH]c(=O)c(-c4noc(C)n4)cc23)c1` [Compound F, 5-(3-methoxyphenyl)-3-(5-methyl-1,2,4-oxadiazol-3-yl)-2-oxo-1,2-dihydro-1,6-naphthyridine] are 0.6 μm, 2.5 μm and 5.0 μm.
For `COc1ccc2c(c1)c(CC(=O)O)c(C)n2C(=O)c1ccc(Cl)cc1` [Compound G, 1-(4-chlorobenzoyl)-5-methoxy-2-methyl-1-H-indole-3-acetic acid, reference compound] the same measures were 0.8 μm, 3.1 μm and 8.1 μm.
For `OC[C@@H](O)[C@@H](O)[C@H](O)[C@H](O)CO` [D-mannitol (JM pulverized product), D-mannitol] the same measures were 0.5 μm, 2.0 μm and 4.2 μm.
On to `OC[C@@H](O)[C@@H](O)[C@H](O)[C@H](O)CO` [D-mannitol (PEARLITOL 50C), D-mannitol], for which, under setting [3], the “particle size distribution D10” value amounted to 6.9 μm, the “particle size distribution D50” value worked out at 47.0 μm and the “particle size distribution D90” value was 125.2 μm.
Turning to `CC(=O)Nc1ccc(O)cc1` [acetaminophen, reference compound], under setting [3], the “particle size distribution D10” value was determined as 2.8 μm, the “particle size distribution D50” value is recorded as 11.6 μm and the “particle size distribution D90” value is on record as 46.1 μm.
In the same order, the values of `OC[C@H]1O[C@@H](O[C@H]2[C@H](O)[C@@H](O)C(O)O[C@@H]2CO)[C@H](O)[C@@H](O)[C@H]1O` (stereo partly drawn) [lactose (Pharmatose 200M), lactose] are 4.0 μm, 48.7 μm and 129.0 μm.
On to `O=C([O-])[O-].[Mg+2]` [magnesium carbonate (light), magnesium carbonate], for which, under setting [3], the “particle size distribution D10” value is listed as 0.9 μm, the “particle size distribution D50” value is 4.0 μm and the “particle size distribution D90” value worked out at 10.6 μm.
For `CCOc1cc(N)c(Cl)cc1C(=O)NCC1CN(Cc2ccc(F)cc2)CCO1` (stereo not drawn) [mosapride citrate, reference compound] the same measures were 2.3 μm, 9.2 μm and 30.6 μm.
